Converted amounts (≈) assume the structure as drawn. The source made the active and inactive calls. No cut-off for these calls is given here.
Experiments:
in vitro [1] = settings: pig, liver microsomes
MDCK-MDR1 = test: Cytotoxicity against MDCKII-MDR1 cells assessed as cell viability at 100 uM measured by MTT assay; format: toxicity, cell-based, Canis lupus familiaris; settings: dog, mdck-mdr1, 100 µM
in vitro [2] = settings: mouse, liver microsomes
in vitro [3] = settings: mouse, liver microsomes; remark: listed apart in the source
Enterococcus faecium [4] = test: Antibacterial activity against Linezolid/Ampicillin/ciprofloxacin/Vancomycin-resistant Enterococcus faecium assessed as inhibition of visible growth incubated for 20 to 24 hrs by microbroth serial dilution assay; format: functional; settings: time 20-24 hrs, read-out: MIC100
Escherichia coli = test: Antibacterial activity against Escherichia coli assessed as inhibition of visible growth incubated for 20 to 24 hrs by microbroth serial dilution assay; format: functional, organism-based; settings: time 20-24 hrs
in vitro [5] = settings: pig, liver microsomes; remark: listed apart in the source
Streptococcus pneumoniae = test: Antibacterial activity against Streptococcus pneumoniae assessed as inhibition of visible growth incubated for 20 to 24 hrs by microbroth serial dilution assay; format: functional; settings: time 20-24 hrs, read-out: MIC100
in vitro [6] = settings: human, liver microsomes
in vitro [7] = settings: human, liver microsomes; remark: listed apart in the source
Listeria = test: Antibacterial activity against Listeria assessed as inhibition of visible growth incubated for 20 to 24 hrs by microbroth serial dilution assay; format: functional, organism-based; settings: time 20-24 hrs
[8] = tested on: Staphylococcus epidermidis; test: Antibacterial activity against Staphylococcus epidermidis assessed as inhibition of visible growth incubated for 20 to 24 hrs by microbroth serial dilution assay; format: functional, organism-based; settings: time 20-24 hrs
[9] = Inhibition of P-gp efflux in MDCKII-MDR1 cells using calcein-AM as substrate assessed as intracellular calcein fluorescence preincubated for 15 mins followed by substrate addition and measured by fluorescence based assay; format: cell-based; settings: Canis lupus familiaris
Staphylococcus aureus [10] = test: In vivo antibacterial activity against methicillin susceptible Staphylococcus aureus ATCC 25923 infected sepsis/peritonitis infection model assessed as reduction in bacterial burden in peritoneum at 80 mg/kg, sc twice at 1 hr and 3 hrs measured after 6 hrs; format: functional
Staphylococcus aureus [11] = test: In vivo antibacterial activity against methicillin susceptible Staphylococcus aureus ATCC 25923 infected sepsis/peritonitis infection model assessed as reduction in bacterial burden in blood at 80 mg/kg, sc twice at 1 hr and 3 hrs measured after 6 hrs; format: functional
Staphylococcus aureus [12] = test: (§1) Induction of resistant development in linezolid 5 passages resistance developed Staphylococcus aureus USA300 FPR3757 assessed as fold increase in MIC at sub-MIC concentration measured after 5 passages with conjugate by serial passage assay; format: functional
Staphylococcus aureus [13] = test: (§2) Induction of resistant development in linezolid 5 passages resistance developed Staphylococcus aureus USA300 FPR3757 assessed as fold increase in MIC at sub-MIC concentration measured after 18 passages with conjugate by serial passage assay; format: functional
Staphylococcus aureus [14] = test: Induction of resistant development in lefamulin 5 passages resistance developed Staphylococcus aureus USA300 FPR3757 assessed as fold increase in MIC at sub-MIC concentration measured after 5 passages with conjugate by serial passage assay; format: functional
Staphylococcus aureus [15] = test: as §1, with “in -(6-(6-(Piperazin-1-y1)-9H-purin-9-y)methyl)pyridin-3-y1)-1H-1,2,3-triazol-1-yl)-22-deoxypleuromutilin-16” for “in linezolid 5”, “after 13” for “after 5”; format: functional
Staphylococcus aureus [16] = test: as §1, with “-(6-(6-(Piperazin-1-y1)-9H-purin-9-y)methyl)pyridin-3-y1)-1H-1,2,3-triazol-1-yl)-22-deoxypleuromutilin-16” for “linezolid 5”; format: functional
Staphylococcus aureus [17] = test: (§3) Induction of resistant development in linezolid 5 passages resistance developed Staphylococcus aureus USA300 FPR3757 assessed as fold increase in MIC at sub-MIC concentration measured after 9 passages with conjugate by serial passage assay; format: functional
Staphylococcus aureus [18] = test: as §1, with “in -(6-(6-(Piperazin-1-y1)-9H-purin-9-y)methyl)pyridin-3-y1)-1H-1,2,3-triazol-1-yl)-22-deoxypleuromutilin-16” for “in linezolid 5”, “after 22” for “after 5”; format: functional
Staphylococcus aureus [19] = test: Induction of resistant development in lefamulin 5 passages resistance developed Staphylococcus aureus USA300 FPR3757 assessed as fold increase in MIC at sub-MIC concentration measured after 9 passages with conjugate by serial passage assay; format: functional
Staphylococcus aureus [20] = test: Induction of resistant development in lefamulin 5 passages resistance developed Staphylococcus aureus USA300 FPR3757 assessed as fold increase in MIC at sub-MIC concentration measured after 13 passages with conjugate by serial passage assay; format: functional
Staphylococcus aureus [21] = test: as §1, with “in -(6-(6-(Piperazin-1-y1)-9H-purin-9-y)methyl)pyridin-3-y1)-1H-1,2,3-triazol-1-yl)-22-deoxypleuromutilin-16” for “in linezolid 5”, “after 25” for “after 5”; format: functional
Staphylococcus aureus [22] = test: Induction of resistant development in lefamulin 5 passages resistance developed Staphylococcus aureus USA300 FPR3757 assessed as fold increase in MIC at sub-MIC concentration measured after 18 passages with conjugate by serial passage assay; format: functional
Staphylococcus aureus [23] = test: Induction of resistant development in linezolid 5 passages resistance developed Staphylococcus aureus USA300 FPR3757 assessed as fold increase in MIC at sub-MIC concentration measured after 13 passages with conjugate by serial passage assay; format: functional
Staphylococcus aureus [24] = test: Induction of resistant development in linezolid 5 passages resistance developed Staphylococcus aureus USA300 FPR3757 assessed as fold increase in MIC at sub-MIC concentration measured after 22 passages with conjugate by serial passage assay; format: functional
Staphylococcus aureus [25] = test: as §2, with “-(6-(6-(Piperazin-1-y1)-9H-purin-9-y)methyl)pyridin-3-y1)-1H-1,2,3-triazol-1-yl)-22-deoxypleuromutilin-16” for “linezolid 5”; format: functional
Staphylococcus aureus [26] = test: as §1, with “in -(6-(6-(Piperazin-1-y1)-9H-purin-9-y)methyl)pyridin-3-y1)-1H-1,2,3-triazol-1-yl)-22-deoxypleuromutilin-16” for “in linezolid 5”, “after 28” for “after 5”; format: functional
Staphylococcus aureus [27] = test: Induction of resistant development in lefamulin 5 passages resistance developed Staphylococcus aureus USA300 FPR3757 assessed as fold increase in MIC at sub-MIC concentration measured after 22 passages with conjugate by serial passage assay; format: functional
Staphylococcus aureus [28] = test: Induction of resistant development in lefamulin 5 passages resistance developed Staphylococcus aureus USA300 FPR3757 assessed as fold increase in MIC at sub-MIC concentration measured after 28 passages with conjugate by serial passage assay; format: functional
Staphylococcus aureus [29] = test: Induction of resistant development in linezolid 5 passages resistance developed Staphylococcus aureus USA300 FPR3757 assessed as fold increase in MIC at sub-MIC concentration measured after 25 passages with conjugate by serial passage assay; format: functional
Staphylococcus aureus [30] = test: Induction of resistant development in lefamulin 5 passages resistance developed Staphylococcus aureus USA300 FPR3757 assessed as fold increase in MIC at sub-MIC concentration measured after 25 passages with conjugate by serial passage assay; format: functional
Staphylococcus aureus [31] = test: as §3, with “-(6-(6-(Piperazin-1-y1)-9H-purin-9-y)methyl)pyridin-3-y1)-1H-1,2,3-triazol-1-yl)-22-deoxypleuromutilin-16” for “linezolid 5”; format: functional
Staphylococcus aureus [32] = test: Antibacterial activity against multi drug-resistant Staphylococcus aureus USA300 FPR3757 assessed as reduction in bacterial growth at 1 times of MIC concentration measured after 24 hrs by time-kill assay; format: functional, organism-based
Staphylococcus aureus [33] = test: Induction of resistant development in linezolid 5 passages resistance developed Staphylococcus aureus USA300 FPR3757 assessed as fold increase in MIC at sub-MIC concentration measured after 28 passages with conjugate by serial passage assay; format: functional
hERG (KCNH2) = hERG (KCNH2) (Homo sapiens, UniProt Q12809); test: Inhibition of hERG expressed in HEK293 cells assessed as tail current at 60 uM measured after 8 mins by automated whole-cell Qpatch Clamp assay relative to control; settings: HEK293 cells that express hERG
Chain of hERG (KCNH2) (Q12809 whole entry): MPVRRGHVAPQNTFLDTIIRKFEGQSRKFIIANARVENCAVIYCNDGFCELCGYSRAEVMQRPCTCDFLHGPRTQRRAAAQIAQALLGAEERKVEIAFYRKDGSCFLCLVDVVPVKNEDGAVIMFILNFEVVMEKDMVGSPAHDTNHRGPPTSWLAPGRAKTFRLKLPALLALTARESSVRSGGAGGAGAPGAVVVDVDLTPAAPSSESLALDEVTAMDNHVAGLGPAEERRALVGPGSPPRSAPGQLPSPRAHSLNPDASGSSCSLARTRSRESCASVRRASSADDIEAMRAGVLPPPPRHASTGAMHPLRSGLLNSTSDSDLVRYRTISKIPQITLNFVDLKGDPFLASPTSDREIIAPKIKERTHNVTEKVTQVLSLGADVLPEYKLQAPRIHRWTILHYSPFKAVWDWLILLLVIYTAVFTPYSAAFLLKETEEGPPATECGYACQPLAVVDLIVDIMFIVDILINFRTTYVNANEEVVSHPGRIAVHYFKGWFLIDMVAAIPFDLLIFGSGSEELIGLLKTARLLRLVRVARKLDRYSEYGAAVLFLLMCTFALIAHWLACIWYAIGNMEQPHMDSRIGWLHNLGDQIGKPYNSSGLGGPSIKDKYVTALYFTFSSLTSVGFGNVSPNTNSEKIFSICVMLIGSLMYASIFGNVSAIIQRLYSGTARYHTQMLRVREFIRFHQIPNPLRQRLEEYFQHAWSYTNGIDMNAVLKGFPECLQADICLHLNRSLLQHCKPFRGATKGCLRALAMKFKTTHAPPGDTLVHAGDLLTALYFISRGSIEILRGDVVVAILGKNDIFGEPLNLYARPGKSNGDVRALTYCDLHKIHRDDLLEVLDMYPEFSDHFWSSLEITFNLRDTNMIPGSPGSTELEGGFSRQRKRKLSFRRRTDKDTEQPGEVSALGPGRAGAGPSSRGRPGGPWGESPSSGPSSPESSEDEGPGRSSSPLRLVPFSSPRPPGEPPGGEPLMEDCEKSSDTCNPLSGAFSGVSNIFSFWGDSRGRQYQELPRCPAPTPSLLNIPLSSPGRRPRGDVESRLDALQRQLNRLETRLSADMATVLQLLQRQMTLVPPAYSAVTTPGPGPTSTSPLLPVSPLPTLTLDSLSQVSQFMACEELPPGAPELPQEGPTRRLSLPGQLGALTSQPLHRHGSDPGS

Enterococcus faecalis = test: Antibacterial activity against Enterococcus faecalis assessed as inhibition of visible growth incubated for 20 to 24 hrs by microbroth serial dilution assay; format: functional; settings: time 20-24 hrs, read-out: MIC100
Staphylococcus aureus [34] = test: Antibacterial activity against multi drug-resistant Staphylococcus aureus USA300 FPR3757 assessed as inhibition of visible growth incubated for 20 to 24 hrs by microbroth serial dilution assay; format: functional; settings: time 20-24 hrs, read-out: MIC100
Enterococcus faecium [35] = test: Antibacterial activity against Vancomycin-resistant Enterococcus faecium assessed as inhibition of visible growth incubated for 20 to 24 hrs by microbroth serial dilution assay; format: functional; settings: time 20-24 hrs, read-out: MIC100
[36] = target: Voltage-gated inwardly rectifying potassium channel KCNH2 (Homo sapiens, UniProt Q12809); test: Inhibition of hERG expressed in HEK293 cells assessed as tail current measured after 8 mins by automated whole-cell Qpatch Clamp assay
Chain of Voltage-gated inwardly rectifying potassium channel KCNH2 (Q12809 whole entry): as above

Row | SMILES | CLint scaled at 0.5 h, 1 µM (in vitro [2]) [L/h/kg] | half-life at 0.5 h, 1 µM (in vitro [3]) [min] | MIC (Enterococcus faecium [4]) [µg/mL] | Activity (Escherichia coli) | MIC (Streptococcus pneumoniae) [µg/mL] | half-life at 0.5 h, 1 µM (in vitro [6]) [min] | CLint scaled at 0.5 h, 1 µM (in vitro [7]) [L/h/kg] | Activity (Listeria) | Activity [8] | IC50 [9] [µM] | fold change (FC) (Staphylococcus aureus [12]) | fold change (FC) (Staphylococcus aureus [13]) | fold change (FC) (Staphylococcus aureus [14]) | fold change (FC) (Staphylococcus aureus [15]) | fold change (FC) (Staphylococcus aureus [16]) | fold change (FC) (Staphylococcus aureus [17]) | fold change (FC) (Staphylococcus aureus [18]) | fold change (FC) (Staphylococcus aureus [19]) | fold change (FC) (Staphylococcus aureus [20]) | fold change (FC) (Staphylococcus aureus [21]) | further results
1 | C=C[C@]1(C)C[C@@H](OC(=O)Cn2cc(-c3ccc(Cn4cnc5c(N6CCN(C)CC6)ncnc54)cc3)nn2)[C@]2(C)[C@H](C)CC[C@]3(CCC(=O)[C@H]32)[C@@H](C)[C@@H]1O | 293 | 1.1 | 0.12 (≈ 0.163 µM) | inactive | 0.12 (≈ 0.163 µM) | 1.4 | 266 | inactive | inactive | 2 | – | – | – | – | – | – | – | – | – | – | CLint scaled at 0.5 h, 1 µM (in vitro [1]): 630 L/h/kg; Activity (MDCK-MDR1): Non-Toxic; half-life at 0.5 h, 1 µM (in vitro [5]): 0.5 min
2 | C=C[C@]1(C)C[C@@H](OC(=O)Cn2cc(-c3ccc(Cn4cnc5c(N6CCNCC6)ncnc54)nc3)nn2)[C@]2(C)[C@H](C)CC[C@]3(CCC(=O)[C@H]32)[C@@H](C)[C@@H]1O.Cl.Cl | – | – | – | – | – | – | – | – | – | – | – | – | – | – | – | – | – | – | – | – | Activity (Staphylococcus aureus [10]): 1 log10FFU/ml; Activity (Staphylococcus aureus [11]): 2 log10FFU/ml
3 | C=C[C@]1(C)C[C@@H](OC(=O)Cn2cc(-c3ccc(Cn4cnc5c(N6CCNCC6)ncnc54)nc3)nn2)[C@]2(C)[C@H](C)CC[C@]3(CCC(=O)[C@H]32)[C@@H](C)[C@@H]1O | – | – | – | – | – | – | – | – | – | – | 4 | 8 | 4 | 16 | 8 | 8 | 32 | 16 | 32 | 64 | fold change (FC) (Staphylococcus aureus [22]): 32; fold change (FC) (Staphylococcus aureus [23]): 16; fold change (FC) (Staphylococcus aureus [24]): 32; fold change (FC) (Staphylococcus aureus [25]): 32; fold change (FC) (Staphylococcus aureus [26]): 64; fold change (FC) (Staphylococcus aureus [27]): 32; fold change (FC) (Staphylococcus aureus [28]): 128; fold change (FC) (Staphylococcus aureus [29]): 32; fold change (FC) (Staphylococcus aureus [30]): 64; fold change (FC) (Staphylococcus aureus [31]): 8; Activity (Staphylococcus aureus [32]): inactive; fold change (FC) (Staphylococcus aureus [33]): 32
4 | CC(=O)NC[C@H]1CN(c2ccc(N3CCOCC3)c(F)c2)C(=O)O1 | – | – | – | – | – | – | – | – | – | – | 4 | 16 | 8 | 4 | 8 | 4 | 8 | 2 | 4 | 8 | fold change (FC) (Staphylococcus aureus [22]): 2; fold change (FC) (Staphylococcus aureus [23]): 8; fold change (FC) (Staphylococcus aureus [24]): 32; fold change (FC) (Staphylococcus aureus [25]): 4; fold change (FC) (Staphylococcus aureus [26]): 16; fold change (FC) (Staphylococcus aureus [27]): 2; fold change (FC) (Staphylococcus aureus [28]): 2; fold change (FC) (Staphylococcus aureus [29]): 32; fold change (FC) (Staphylococcus aureus [30]): 2; fold change (FC) (Staphylococcus aureus [31]): 4; fold change (FC) (Staphylococcus aureus [33]): 32
5 | C=C[C@]1(C)C[C@@H](OC(=O)Cn2cc(-c3ccc(Cn4cnc5c(N)ncnc54)cc3)nn2)[C@]2(C)[C@H](C)CC[C@]3(CCC(=O)[C@H]32)[C@@H](C)[C@@H]1O | > 600 | < 0.5 | 0.12 (≈ 0.184 µM) | inactive | 0.5 (≈ 0.766 µM) | 1.2 | 305 | inactive | inactive | 36 | – | – | – | – | – | – | – | – | – | – | inhibition at 8 min, 60 µM (hERG (KCNH2)): 26.3%; MIC (Enterococcus faecalis): 0.25 µg/mL (≈ 0.383 µM); MIC (Staphylococcus aureus [34]): 0.03 µg/mL (≈ 0.046 µM); MIC (Enterococcus faecium [35]): 0.12 µg/mL (≈ 0.184 µM); IC50 [36]: > 200 µM
